Results taken from ChEMBL document CHEMBL2380306 (Bioorg Med Chem Lett, 2013).
Values after ≈ are worked out from the molar mass of the structure shown.

Tests used:
[1] = physchem; settings: buffer, pH 7.4
[2] = Aqueous kinetic solubility of the compound at pH 6.5; type: physicochemical; settings: read-out: Kinetic_solubility
[3] = Apparent permeability across MDCK2 cells; type: ADME, cell-based, Canis lupus familiaris, MDCK-II; settings: dog, MDCK
[4] = Drug excretion in Wistar-Han rat bile at 5 mg/kg, iv; type: ADME, organism-based; set-up: dose 5 mg/kg, route intravenous; settings: read-out: Drug excretion
[5] = Oral bioavailability in Wistar-Han rat at 5 mg/kg; type: ADME, organism-based; settings: in vivo
[6] = Oral bioavailability in Beagle dog at 4 mg/kg; type: ADME, organism-based, Canis lupus familiaris; settings: in vivo
[7] = Oral bioavailability in Beagle dog at 5 mg/kg; type: ADME, organism-based, Canis lupus familiaris; settings: in vivo
[8] = Apparent permeability across human Caco2 cells at pH 7.4; type: ADME, cell-based; settings: Caco-2, pH 7.4
[9] = Apparent permeability across human Caco2 cells at pH 6.5; type: ADME, cell-based; settings: Caco-2, pH 6.5
[10] = Volume of distribution at steady state in Beagle dog at 0.5 mg/kg, iv and 5 mg/kg, po; type: ADME, organism-based, Canis lupus familiaris; settings: in vivo, read-out: Vdss
[11] = Oral bioavailability in Wistar-Han rat at 50 mg/kg; type: ADME, organism-based; settings: in vivo
[12] = Volume of distribution at steady state in Wistar-Han rat at 1 mg/kg, iv and 50 mg/kg, po; type: ADME, organism-based; settings: in vivo, read-out: Vdss

Structure (SMILES) | logD [1] | Papp [3] [×10⁻⁶ cm/s] | further results
CCC[C@@H](Oc1cc(C)c(-n2cc(C(F)(F)F)cn2)c(C)c1)c1ccc(C(=O)NCCC(=O)O)cc1 | 2.7 |  | 
CCCC(Nc1ccc(-n2cnc(C(F)(F)F)c2)cc1)c1ccc(C(=O)NCCC(=O)O)cc1 (racemic) | 1.3 | 0.6 | solubility kinetic [2]: 350 µM (≈ 166 µg/mL)
CCCC(Nc1ccc(-n2cc(C(F)(F)F)cn2)cc1)c1ccc(C(=O)NCCC(=O)O)cc1 (racemic) | 1.9 | 4 | solubility kinetic [2]: 350 µM (≈ 166 µg/mL)
CCCC(Nc1ccc(-n2cc(C(F)(F)F)cn2)nc1)c1ccc(C(=O)NCCC(=O)O)cc1 (racemic) | 2.1 | 4.6 | 
CCCC(Nc1cnc(-n2cc(C(F)(F)F)cn2)nc1)c1ccc(C(=O)NCCC(=O)O)cc1 (racemic) | 1.3 | 0.8 | solubility kinetic [2]: 380 µM (≈ 181 µg/mL)
CCCC(Nc1ccc(-n2cc(C(F)(F)F)cn2)cn1)c1ccc(C(=O)NCCC(=O)O)cc1 (racemic) | 1.3 | 0.8 | 
CCCC(Nc1cc(C)c(-n2cc(C(F)(F)F)cn2)c(C)c1)c1ccc(C(=O)NCCC(=O)O)cc1 (racemic) | 2.2 | 2.7 | 
CCCC(Oc1cnc(-n2cc(C(F)(F)F)cn2)nc1)c1ccc(C(=O)NCCC(=O)O)cc1 (racemic) | 1.5 |  | 
O=C(O)CCNC(=O)c1ccc(C(Oc2ccc(-n3cc(C(F)(F)F)cn3)cc2)C2CCC2)cc1 (racemic) | 2.6 |  | 
O=C(O)CCNC(=O)c1ccc(C(Oc2ccc(-n3cc(C(F)(F)F)cn3)cc2)C2CCCC2)cc1 (racemic) | 3.3 |  | 
O=C(O)CCNC(=O)c1ccc(C(Oc2ccc(-n3cc(C(F)(F)F)cn3)cc2)C2CC2)cc1 (racemic) | 1.7 |  | 
CCCC(Oc1cc(C)c(-n2cc(C(F)(F)F)cn2)c(C)c1)c1ccc(C(=O)NCCC(=O)O)cc1 (racemic) | 2.6 |  | 
CCCC(Nc1ccc(-n2cnc(C(F)(F)F)c2)cc1)c1ccc(C(=O)NCCC(=O)O)cc1 (single isomer, unassigned) |  |  | dose excreted [4]: 57%
CCCC(Oc1ccc(-n2cc(C(F)(F)F)cn2)cc1)c1ccc(C(=O)NCCC(=O)O)cc1 (single isomer, unassigned) |  |  | bioavailability [5]: 60%
CCC[C@H](c1ccc(C(=O)NCCC(=O)O)cc1)[C@H](c1ccc(Cl)cc1)c1c[nH]c2c(F)cc(C)cc12 [MK-3577] |  |  | bioavailability [6]: 30%; solubility kinetic [2]: 23 µM (≈ 12 µg/mL); bioavailability [5]: 7%
CCC[C@H](Oc1cc(C)c(-n2cc(C(F)(F)F)cn2)c(C)c1)c1ccc(C(=O)NCCC(=O)O)cc1 [PF-06291874] | 2.5 | 3.6 | bioavailability [7]: 100%; Papp [8]: 8.5 ×10⁻⁶ cm/s; Papp [9]: 30 ×10⁻⁶ cm/s; Vd [10]: 0.31 L/kg; bioavailability [11]: 100%; Vd [12]: 0.4 L/kg

Now from value to compound, other results behind:

logD [1] | Papp [3] [×10⁻⁶ cm/s] | Structure (SMILES) | further results
2.4 | 3.1 | CCCC(Oc1ccc(-n2cc(C(F)(F)F)cn2)cc1)c1ccc(C(=O)NCCC(=O)O)cc1 (racemic) | solubility kinetic [2]: 400 µM (≈ 190 µg/mL)
2.5 |  | CCCC(Oc1ccc(-n2cc3ccccc3n2)cc1)c1ccc(C(=O)NCCC(=O)O)cc1 (racemic) | 
 | 2.3 | CCCC(Oc1ccc(-n2cnc(C(F)(F)F)c2)cc1)c1ccc(C(=O)NCCC(=O)O)cc1 (racemic) | 
2.6 | 3.4 | CCCC(Oc1ccc(-n2cc(C(F)(F)F)cn2)nc1)c1ccc(C(=O)NCCC(=O)O)cc1 (racemic) | 
3.2 |  | CC(C)CC(Oc1ccc(-n2cc(C(F)(F)F)cn2)cc1)c1ccc(C(=O)NCCC(=O)O)cc1 (racemic) | 
3.7 |  | CC(C)(C)C(Oc1ccc(-n2cc(C(F)(F)F)cn2)cc1)c1ccc(C(=O)NCCC(=O)O)cc1 (racemic) | 
2.6 |  | CC(C)C(Oc1ccc(-n2cc(C(F)(F)F)cn2)cc1)c1ccc(C(=O)NCCC(=O)O)cc1 (racemic) | 
1.9 |  | CCC(Oc1ccc(-n2cc(C(F)(F)F)cn2)cc1)c1ccc(C(=O)NCCC(=O)O)cc1 (racemic) | 
2.6 |  | CCCC(Oc1ccc(-n2cc(Cl)cn2)cc1)c1ccc(C(=O)NCCC(=O)O)cc1 (racemic) | solubility kinetic [2]: 70 µM (≈ 30.9 µg/mL)
2.1 |  | CCCC(Oc1ccc(-n2cc(C)cn2)cc1)c1ccc(C(=O)NCCC(=O)O)cc1 (racemic) | 
2 |  | CCCC(Oc1ccc(-n2cc(F)cn2)cc1)c1ccc(C(=O)NCCC(=O)O)cc1 (racemic) | 
1.7 |  | CCCC(Oc1ccc(-n2cccn2)cc1)c1ccc(C(=O)NCCC(=O)O)cc1 (racemic) | 
1.2 |  | CCCC(Oc1ccc(-n2cc(C#N)cn2)cc1)c1ccc(C(=O)NCCC(=O)O)cc1 (racemic) | 
1.4 |  | CCCC(Oc1ccc(-n2cc(OC)cn2)cc1)c1ccc(C(=O)NCCC(=O)O)cc1 (racemic) | 
0.5 |  | CCCC(Oc1ccc(-n2cc(C(=O)N(C)C)cn2)cc1)c1ccc(C(=O)NCCC(=O)O)cc1 (racemic) | 
2.8 |  | CCCC(Oc1ccc(-n2cc(C(F)(F)F)c(C)n2)cc1)c1ccc(C(=O)NCCC(=O)O)cc1 (racemic) | 
2.7 |  | CCCC(Oc1ccc(-n2cc3c(n2)CCCC3)cc1)c1ccc(C(=O)NCCC(=O)O)cc1 (racemic) | 
2.6 |  | CCCC(Oc1ccc(-n2cc(C(F)(F)F)cn2)c(C)c1)c1ccc(C(=O)NCCC(=O)O)cc1 (racemic) | 
 | 2.2 | CCCC(Oc1ccc(-n2cc3ccccc3n2)cc1)c1ccc(C(=O)NCCC(=O)O)cc1 (single isomer, unassigned) | bioavailability [5]: 3%
